Data set [1] deals with PTH secretion. The data set can be described thus: PTH secretion action, Experimental Example 3 (serum PTH after oral administration). The settings on record: test compound administration group, 1 mg/5 ml/kg oral, rats fasted 20 hrs. It counts as in vivo, male SD rats. How it is done:
The test compound was orally administered to 5 to 9-week-old male SD rats (Charles River Japan, Inc.) fasted for 20 hrs, using a solvent (0.5% methyl cellulose solution) at a dose of 1 mg/5 ml/kg. A solvent alone was orally administered to the control group at a dose of 5 ml/kg. The blood was drawn from the tail vein immediately before and 15 min, 30 min after administration of the test compound, and serum was obtained. The serum PTH concentration was measured using rat PTH ELISA kit (Amersham Biosciences).

A further data set addresses T1, human calcium receptor (Homo sapiens, UniProt P41180).
T1 construct: expressed in transfected cells; host or cells: cell strain derived from rat adrenal, co-transformed with luciferase cDNA
T1 sequence (P41180 20-1078): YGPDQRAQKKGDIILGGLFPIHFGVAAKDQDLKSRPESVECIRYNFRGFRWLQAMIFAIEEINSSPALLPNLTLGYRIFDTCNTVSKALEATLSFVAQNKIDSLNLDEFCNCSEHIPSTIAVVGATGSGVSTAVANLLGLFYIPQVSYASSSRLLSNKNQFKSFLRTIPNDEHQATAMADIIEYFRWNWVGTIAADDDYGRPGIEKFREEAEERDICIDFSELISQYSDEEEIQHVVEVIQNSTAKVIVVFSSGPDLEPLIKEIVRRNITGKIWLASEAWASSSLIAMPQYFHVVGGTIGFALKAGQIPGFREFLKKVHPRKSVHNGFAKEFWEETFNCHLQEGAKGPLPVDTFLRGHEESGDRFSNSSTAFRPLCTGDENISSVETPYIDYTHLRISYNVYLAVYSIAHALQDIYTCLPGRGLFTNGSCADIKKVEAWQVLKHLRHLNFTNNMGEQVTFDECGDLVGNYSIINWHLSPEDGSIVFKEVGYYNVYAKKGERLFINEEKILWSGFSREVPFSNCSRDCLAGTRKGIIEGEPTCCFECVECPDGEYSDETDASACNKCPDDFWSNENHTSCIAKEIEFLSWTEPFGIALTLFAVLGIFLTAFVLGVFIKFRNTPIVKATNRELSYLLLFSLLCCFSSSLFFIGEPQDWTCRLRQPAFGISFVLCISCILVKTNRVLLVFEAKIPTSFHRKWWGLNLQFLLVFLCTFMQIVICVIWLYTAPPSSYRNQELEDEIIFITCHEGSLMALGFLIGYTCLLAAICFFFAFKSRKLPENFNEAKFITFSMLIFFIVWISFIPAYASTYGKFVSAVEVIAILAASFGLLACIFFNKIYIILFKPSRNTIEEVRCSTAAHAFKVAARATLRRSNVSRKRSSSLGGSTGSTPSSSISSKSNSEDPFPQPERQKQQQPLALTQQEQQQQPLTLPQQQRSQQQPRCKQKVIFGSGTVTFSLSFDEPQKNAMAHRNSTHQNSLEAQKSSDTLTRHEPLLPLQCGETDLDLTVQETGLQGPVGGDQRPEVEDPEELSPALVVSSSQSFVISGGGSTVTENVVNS
The data set can be described thus: Evaluation of antagonistic action on calcium receptor using reporter gene (luciferase). It counts as cell-based. The following applies: transformed rat adrenal derived cells, 5 mM calcium chloride, culture 4 hrs, luciferase activity; read-out: Reporter gene assay (IC50, concentration showing 50% inhibitory rate). The procedure, abridged: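 Rat adrenal-derived cells transfected with luciferase and human calcium receptor cDNA, in F12 with 0.5% dialyzed horse serum and 0.25% dialyzed fetal bovine serum. Luciferase luminescence gave % inhibition vs control and blank; IC50 at 50% inhibition.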
(In general: In a reporter assay the amount or activity of a reporter protein is the signal.)

Data set [2] concerns PTH secretion. Briefly: PTH secretion action, Experimental Example 2 (serum PTH after oral administration). Type of data set: in vivo, male SD rats. The following applies: comparative example, 30 mg/5 ml/kg oral.
The test system of data set [3] is osteoblast and osteoclast. The settings on record: in vitro; cited from earlier work.
The conditions of data set [4]: OVX rat, 100 μmol/kg; cited from earlier work.
For data set [5], the system named is PTH secretion. The data set can be described thus: Reproductive test of NPS-2143 of the reference (PTH secretion). It counts as in vivo.
The subject of the next data set is PTH release. The following applies: cited from earlier work.
The next data set relates to bone resorption. The data set can be described thus: Concomitant administration of test compound and estrogen: bone resorption marker blood ICTP. It counts as in vivo, ovariectomized rats. The settings on record: day 13, exclusive administration (Group B estradiol 10 μg/kg s.c.; Group C Example 1-1 3 mg/kg oral), mean ± S.D., n = 5. How it is done:
The 13-week-old ovariectomized rats were divided into 4 groups of a control group (Group A), an estrogen administration group (Group B), a test compound administration group (Group C), and a test compound and estrogen concomitant administration group (Group D). One sham control group (E group) subjected to a sham surgery was also established. Estradiol was dissolved in 5% benzyl alcohol-corn oil and subcutaneously administered to an estrogen administration groups (Group B and Group D) at the dose of 10 μg/kg. 5% Benzyl alcohol-corn oil was subcutaneously administered to groups (Group A and Group C) free from administration of estrogen. The compound of Example 1-1 was suspended in 0.5% methyl cellulose solution and orally administered to groups (Group C and Group D) to be administered with the test compound at the dose of 3 mg/kg. As regards the groups (Group A and Group B) free from administration of the test compound, 0.5% methyl cellulose solution was orally administered. On day 13 from the start of the administration, the blood was drawn in each group from the tail vein, and serum was obtained. ICTP, which is a blood bone resorption marker, was measured using a commercially available ELISA kit (“RatLaps ELISA kit”, Nordic Bioscience Diagnostics).

Data set [6] relates to PTH secretion. The data set can be described thus: Concomitant administration of test compound and estrogen: blood PTH with time. Type of data set: in vivo, ovariectomized rats. How it is done: The 13-week-old ovariectomized rats were divided into 4 groups of a control group (Group A), an estrogen administration group (Group B), a test compound administration group (Group C), and a test compound and estrogen concomitant administration group (Group D). One sham control group (E group) subjected to a sham surgery was also established. Estradiol was dissolved in 5% benzyl alcohol-corn oil and subcutaneously administered to an estrogen administration groups (Group B and Group D) at the dose of 10 μg/kg. 5% Benzyl alcohol-corn oil was subcutaneously administered to groups (Group A and Group C) free from administration of estrogen. The compound of Example 1-1 was suspended in 0.5% methyl cellulose solution and orally administered to groups (Group C and Group D) to be administered with the test compound at the dose of 3 mg/kg. As regards the groups (Group A and Group B) free from administration of the test compound, 0.5% methyl cellulose solution was orally administered.
In addition, blood was drawn with time for the measurement of blood PTH at day 16 of administration. The blood was drawn in each group from the tail vein immediately before oral administration and 0.25, 0.5, 1, 2 and 4 hr later, and serum was obtained. For serum PTH measurement, a commercially available ELISA kit (“rat intact PTH ELISA kit”, Immutopics) was used.

Each structure is given as a SMILES string.

Take `Cc1ccc(CC(C)(C)NC[C@@H](O)CO[C@H](C)c2ccccc2Oc2ccc(C(=O)O)cc2)cc1F` [Example 2-1, 4-[2-[(1R)-[(2R)-3-[[1-(3-fluoro-4-methylphenyl)-2-methylpropan-2-yl]amino]-2-hydroxypropoxy]ethyl]phenoxy]benzoic acid]: the “Serum PTH concentration 15 min later” value in the data set with PTH secretion [1] (15 min) turned out to be 25.1 ± 2.3 pg/mL. Besides, the “Serum PTH concentration 30 min later” value in the data set with PTH secretion [1] (30 min) is 19.1 ± 0.9 pg/mL. For the same compound, at human calcium receptor, the IC50 came to 15 nM.
Turning to `COc1ccc(-c2cccc(C(=O)O)c2)cc1C(OC[C@H](O)CNC(C)(C)Cc1ccc2ccccc2c1)C1CC1` (some centres unmarked), the PTH secretion activity result in the data set with PTH secretion [2] is listed as “no PTH secretion activity was exhibited”.
Regarding `CC(C)(Cc1ccc2ccccc2c1)NC[C@@H](O)COc1cccc(Cl)c1C#N` [NPS-2143], the “Direct effect on osteoblast and osteoclast” value in data set [3] is “did not show any direct effect”. For the same compound, in data set [4], the “Blood concentration of NPS-2143 8 hours after the administration” value was “not less than 100 ng/ml” and the “Blood concentration of NPS-2143 24 hours later” value was at most 10 ng/mL. Also, the “PTH secretion promoting action” value in the data set on PTH secretion [5] is “sustained secretion promoting action”. Moreover, the “Blood PTH concentration 4 hours later” value in the data set on PTH release (OVX rat, 100 μmol/kg) was “about 140 pg/ml”. In addition, the “Blood PTH concentration in 30 minutes” value in the data set on PTH release (OVX rat, rat PTH (1-34) 5 μg/kg, NPS-2143 100 μmol/kg) is listed as “about 115 pg/ml”. In addition, in the data set with PTH release (OVX rats, oral), the “Effect on bone (bone density)” value is given as “free of bone decrease or bone increase” and the “Release of PTH” value is “significantly promotes release of PTH”.
Consider `C[C@]12CC[C@@H]3c4ccc(O)cc4CC[C@H]3[C@@H]1CC[C@@H]2O` [Estradiol, reference compound], for which the “Blood ICTP concentration” value with bone resorption is 20.93 ± 3.18 ng/mL. In the data set on PTH secretion [6] (Table 66, exclusive administration), the “Change of blood PTH with time” value is reported as “increase in blood PTH was not observed”. The “PTH (1–84) concentration 0.25 hr” value in the data set with PTH secretion [6] (day 16, 0.25 hr, exclusive administration (Group B estradiol; Group C Example 1-1 3 mg/kg oral)) was 53.65 ± 56.31 pg/mL. Moreover, in the data set on PTH secretion [6] (day 16, 0.5 hr, exclusive administration (Group B estradiol; Group C Example 1-1 3 mg/kg oral)), the “PTH (1–84) concentration 0.5 hr” value turned out to be 56.55 ± 21.71 pg/mL. For the same compound, the “PTH (1–84) concentration 1 hr” value with PTH secretion [6] (day 16, 1 hr, exclusive administration (Group B estradiol; Group C Example 1-1 3 mg/kg oral)) was determined as 35.70 ± 21.30 pg/mL. In addition, the “PTH (1–84) concentration 2 hr” value in the data set with PTH secretion [6] (day 16, 2 hr, exclusive administration (Group B estradiol; Group C Example 1-1 3 mg/kg oral)) was 41.94 ± 20.85 pg/mL. The “PTH (1–84) concentration 4 hr” value with PTH secretion [6] (day 16, 4 hr, exclusive administration (Group B estradiol; Group C Example 1-1 3 mg/kg oral)) turned out to be 46.84 ± 14.62 pg/mL. In addition, in the data set with PTH secretion [6] (day 16, immediately before oral administration, exclusive administration (Group B estradiol 10 μg/kg s.c.; Group C Example 1-1 3 mg/kg oral)), the “PTH (1–84) concentration 0 hr” value came out at 36.83 ± 14.45 pg/mL.
